The values that follow come from ChEMBL document CHEMBL3112491, “3-(5-)-Amino-o-diarylisoxazoles: regioselective synthesis and antitubulin activity” (2014).

The source made the active and inactive calls. No cut-off for these calls is given here.

The test system of assay [1] is Paracentrotus lividus. As to the kind of experiment: Antimitotic activity in sea urchin fertilized egg assessed as cleavage arrest treated at 8 to 20 mins post-fertilization measured at 2.5 to 5.5 hrs post-fertilization. The format is functional.
The test system of assay [2] is Paracentrotus lividus. As to the kind of experiment: Microtubule destabilizing activity in sea urchin free-swimming blastula assessed as embryo spinning treated at 9 to 10 hrs post-fertilization measured after 0.15 to 15 hrs. It is filed as functional.
For assay [3], the system named is Paracentrotus lividus. As to the kind of experiment: Antimitotic activity in sea urchin fertilized egg assessed as cleavage alteration treated at 8 to 20 mins post-fertilization measured at 2.5 to 5.5 hrs post-fertilization. It is filed as functional.
Assay [4] relates to Paracentrotus lividus. As to the kind of experiment: Microtubule destabilizing activity in sea urchin free-swimming blastula assessed as embryo spinning up to 4 uM treated at 9 to 10 hrs post-fertilization measured after 0.15 to 15 hrs. The format is functional, organism-based.

As for `COc1ccc(-c2c(NC(C)=O)noc2-c2cc(OC)c3c(c2)OCCO3)cc1`, the EC in assay [1], in assay [2] and in assay [3] was above 4 µM each time.

Take `COc1ccc(Cc2noc(-c3cc4c(c(OC)c3OC)OCO4)n2)cc1`: the result in assay [4] was inactive.

Consider `COc1ccc(-c2onc(NC(C)=O)c2-c2ccc([N+](=O)[O-])cc2)cc1`, for which the EC in assay [1], in assay [2] and in assay [3] was above 4 µM throughout.

For the compound `COc1ccc(-c2c(NC(C)=O)noc2-c2cc3c(c(OC)c2OC)OCO3)cc1`, the EC in assay [1], in assay [2] and in assay [3] was above 4 µM in each case.

Consider `COc1ccc(Cc2noc(-c3ccc([N+](=O)[O-])cc3)n2)cc1`, for which the outcome in assay [4] was inactive.

For `COc1ccc(-c2nc(CCc3cc(OC)c(OC)c(OC)c3)no2)cc1`, the result in assay [4] was inactive.

With `COc1ccc(Cc2noc(-c3cc(OC)c4c(c3)OCO4)n2)cc1`, the outcome in assay [4] was inactive.

For `COc1ccc(-c2c(NC(C)=O)noc2-c2cc(OC)c(OC)c(OC)c2)cc1`, the EC in assay [1], in assay [2] and in assay [3] was above 4 µM throughout.

For `COc1ccc(-c2onc(NC(C)=O)c2-c2ccc(OC)cc2)cc1`, the EC in assay [1], in assay [2] and in assay [3] was above 4 µM in each case.

As to `COc1ccc(-c2noc(N)c2-c2cc3c(c(OC)c2OC)OCO3)cc1`, the EC in assay [1], in assay [2] and in assay [3] was above 4 µM in each case.

Take `COc1ccc(-c2onc(N)c2-c2cc3c(c(OC)c2OC)OCO3)cc1`: the EC in assay [1] is above 4 µM; in assay [2], above 4 µM; in assay [3] it was 4 µM.

Regarding `COc1ccc(-c2noc(N)c2-c2cc(OC)c(OC)c(OC)c2)cc1`, the EC is 0.01 µM in assay [1], 0.1 µM in assay [2] and 0.002 µM in assay [3].

As to `COc1ccc(-c2c(-c3cc(OC)c(OC)c(OC)c3)noc2N(C(C)=O)C(C)=O)cc1`, the EC in assay [1] worked out at 0.2 µM; in assay [2], 1 µM; in assay [3], 0.05 µM.

Turning to `COc1ccc(C(=O)Nc2noc(-c3ccc(OC)cc3)c2-c2cc(OC)c(OC)c(OC)c2)cc1`, the EC in assay [1], in assay [2] and in assay [3] was above 4 µM throughout.

With `COc1ccc(CCc2noc(-c3cc(OC)c4c(c3)OCCO4)n2)cc1`, the outcome in assay [4] was inactive.

Regarding `COc1ccc(-c2c(-c3ccccc3)noc2N)cc1OC`, the EC in assay [1] came out at 10 µM; in assay [2], 10 µM; in assay [3], 0.5 µM.

With `COc1ccc(-c2c(-c3cc(OC)c4c(c3OC)OCO4)noc2N)cc1`, the EC in assay [1] is above 5 µM; in assay [2] it was above 5 µM; in assay [3], 2 µM.

`COc1ccc(-c2c(NC(C)=O)noc2-c2cc(OC)c3c(c2OC)OCO3)cc1`: the EC in assay [1], in assay [2] and in assay [3] was above 4 µM throughout.

Consider `COc1ccc(Cc2noc(-c3cccc(OC)c3)n2)cc1`, for which the outcome in assay [4] was inactive.

In the case of `COc1ccc(/C=C\c2cc(OC)c3c(c2)OCO3)cc1O` [Combretastatin A-2], the EC in assay [1] stood at 0.01 µM; in assay [2], 0.05 µM; in assay [3], 0.002 µM.

`COc1ccc(-c2noc(N)c2-c2cc(OC)c3c(c2OC)OCO3)cc1`: the EC in assay [1] was above 4 µM; in assay [2], above 4 µM; in assay [3], 4 µM.

For the compound `COc1ccc(-c2c(N)noc2-c2cc(OC)c3c(c2)OCCO3)cc1`, the EC in assay [1] amounted to 0.02 µM; in assay [2] it was 0.5 µM; in assay [3] it was 0.005 µM.

Turning to `COc1ccc(-c2c(NC(C)=O)noc2-c2cc(OC)c3c(c2)OCO3)cc1`, the EC in assay [1], in assay [2] and in assay [3] was above 4 µM in each case.

For the compound `COc1ccc(-c2onc(NC(C)=O)c2-c2ccc(Cl)cc2)cc1`, the EC in assay [1], in assay [2] and in assay [3] was above 4 µM in each case.

Regarding `COc1ccc(-c2noc(N)c2-c2ccc(Cl)cc2)cc1`, the EC in assay [1], in assay [2] and in assay [3] was above 4 µM throughout.

Regarding `COc1ccc(-c2onc(NC(C)=O)c2-c2cc(OC)c(OC)c(OC)c2)cc1`, the EC in assay [1], in assay [2] and in assay [3] was above 4 µM throughout.

For the compound `COc1ccc(Cc2noc(-c3cc(OC)c4c(c3OC)OCO4)n2)cc1`, the outcome in assay [4] was inactive.

Turning to `COc1ccc(-c2onc(N)c2-c2cc(OC)c(OC)c(OC)c2)cc1`, the EC in assay [1] was 0.02 µM; in assay [2], 0.2 µM; in assay [3] it was 0.004 µM.

Regarding `COc1ccc(-c2onc(N)c2-c2cc(OC)c3c(c2OC)OCO3)cc1`, the EC in assay [1], in assay [2] and in assay [3] was above 4 µM each time.

Turning to `COc1ccc(Cc2noc(-c3cc(OC)c(OC)c(OC)c3)n2)cc1`, in assay [4], the outcome was inactive.

As to `COc1ccc(-c2c(NC(C)=O)noc2-c2cccc(OC)c2)cc1`, the EC in assay [1], in assay [2] and in assay [3] was above 4 µM each time.

As for `COc1ccc(-c2c(-c3cc(OC)c4c(c3OC)OCO4)noc2N(C(C)=O)C(C)=O)cc1`, the EC in assay [1] turned out to be 2 µM; in assay [2], 5 µM; in assay [3], 0.5 µM.

In the case of `COc1ccc(-c2c(-c3cc(OC)c4c(c3)OCO4)noc2N(C(C)=O)C(C)=O)cc1`, the results for the EC in assay [1], in assay [2] and in assay [3] were 0.1 µM, 0.5 µM and 0.02 µM, respectively.
